Where two headings read alike, the source gives them in different places.
Assays:
[1] = test system: HIV-1 laboratory strain, NL4-3; assay: MT-4 cytoprotection assay; assay type: cell-based
Outline: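 MT-4 cells mock- or batch-infected with NL4-3 (MOI 0.0005) for 2 h, washed, then cultured 4 days with increasing compound concentrations. Viability read by WST-1 tetrazolium reduction: cytoprotection in infected cells, toxicity in mock-infected cells.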

HIV-1NL4-3 = assay: P4-MAGI assay; assay type: cell-based
Outline: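 HeLa-derived CD4+ P4 cells carrying an LTR-driven lacZ were infected with HIV-1NL4-3 at MOI 1 with DEAE-Dextran, then compound added in increasing concentrations right after virus; infection reported as Tat-induced β-galactosidase. TC50 measured by WST-1 in mock-infected cells.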

[2] = Human immunodeficiency virus 1, NL43, MT4, 96 h, MT-4 cells, four days incubation, WST-1 readout, read-out: MT4 EC50
[3] = Human immunodeficiency virus 1, NL43, less than about 100 nm, read-out: MT-4 assay EC50 (concentration of compound that reduces the virus induced cytopathic effect by 50%)
[4] = Human immunodeficiency virus 1, 24 h, P4 cells, 24 hour incubation, β-galactosidase expression, read-out: P4-MAGI IC50
[5] = Human immunodeficiency virus 1, text statement, less than about 100 nm, read-out: P4-MAGI assay IC50

SMILES | EC50 [1, 2] | EC50 [1, 3] | IC50 (HIV-1NL4-3; [4]) | IC50 (HIV-1NL4-3; [5])
C=C(C)[C@@H]1CC[C@]2(C(=O)NCc3ccc(F)c(C(=O)NCc4cccc(C(=O)O)c4)c3)CC[C@]3(C)C(CCC4[C@@]5(C)CC[C@H](O)C(C)(C)C5CC[C@]43C)C12 (stereo partly shown) [Example 109] | 50 nM | < 100 nM | 149 nM | 
C=C(C)[C@@H]1CC[C@]2(C(=O)NCCc3ccc(O)cc3)CC[C@]3(C)C(CCC4[C@@]5(C)CC[C@H](O)C(C)(C)C5CC[C@]43C)C12 (stereo partly shown) [Example 111] | 3800 nM |  | 72.2 nM | < 100 nM
C=C(C)[C@@H]1CC[C@]2(C(=O)NCc3ccc(OC)c(C(=O)NCCCCC(=O)O)c3)CC[C@]3(C)C(CCC4[C@@]5(C)CC[C@H](O)C(C)(C)C5CC[C@]43C)C12 (stereo partly shown) [Example 114] | 211 nM |  | 48.4 nM | < 100 nM
C=C(C)[C@@H]1CC[C@]2(C(=O)NCc3cccc(C(=O)NCc4ccc(OCCCC(=O)O)c(C(=O)O)c4)c3)CC[C@]3(C)C(CCC4[C@@]5(C)CC[C@H](O)C(C)(C)C5CC[C@]43C)C12 (stereo partly shown) [Example 117] | 384 nM |  | 76 nM | < 100 nM
C=C(C)[C@@H]1CC[C@]2(C(=O)NCc3cccc(C(=O)NCc4ccc(OCCCn5ccnc5)c(C(=O)OC)c4)c3)CC[C@]3(C)C(CCC4[C@@]5(C)CC[C@H](O)C(C)(C)C5CC[C@]43C)C12 (stereo partly shown) [Example 121] | 17 nM |  | 21.3 nM | 
C=C(C)[C@@H]1CC[C@]2(C(=O)NCc3cccc(C(=O)NCc4ccc(OCCCN5CCOCC5)c(C(=O)OC)c4)c3)CC[C@]3(C)C(CCC4[C@@]5(C)CC[C@H](O)C(C)(C)C5CC[C@]43C)C12 (stereo partly shown) [Example 123] | 13 nM | < 100 nM | 18.9 nM | < 100 nM
C=C(C)[C@@H]1CC[C@]2(C(=O)NCc3cccc(C(=O)NCc4ccc(OCCCN5CCOCC5)c(C(=O)O)c4)c3)CC[C@]3(C)C(CCC4[C@@]5(C)CC[C@H](O)C(C)(C)C5CC[C@]43C)C12 (stereo partly shown) [Example 124] | 8 nM | < 100 nM | 27.9 nM | < 100 nM
C=C(C)[C@@H]1CC[C@]2(C(=O)NCc3cccc(C(=O)NCc4ccc(OCCCO)c(C(=O)O)c4)c3)CC[C@]3(C)C(CCC4[C@@]5(C)CC[C@H](O)C(C)(C)C5CC[C@]43C)C12 (stereo partly shown) [Example 125] | 56 nM | < 100 nM | 42 nM | < 100 nM
C=C(C)[C@@H]1CC[C@]2(C(=O)NCCc3cccc(-c4nc5ccc(C(=O)O)cc5[nH]4)c3)CC[C@]3(C)C(CCC4[C@@]5(C)CC[C@H](O)C(C)(C)C5CC[C@]43C)C12 (stereo partly shown) [Example 130] | 230 nM |  | 39 nM | 
C=C(C)[C@@H]1CC[C@]2(C(=O)NCCc3cccc(C(=O)NCc4ccc(C(=O)N[C@@H](CCC(=O)O)C(=O)O)cc4)c3)CC[C@]3(C)C(CCC4[C@@]5(C)CC[C@H](O)C(C)(C)C5CC[C@]43C)C12 (stereo partly shown) [Example 133] | 84 nM | < 100 nM | 34 nM | < 100 nM
C=C(C)[C@@H]1CC[C@]2(C(=O)NCCc3cccc(C(=O)NCc4ccc(C(=O)N(C)CCN(C)C)cc4)c3)CC[C@]3(C)C(CCC4[C@@]5(C)CC[C@H](O)C(C)(C)C5CC[C@]43C)C12 (stereo partly shown) [Example 134] | 240 nM |  | 68.7 nM | < 100 nM
C=C(C)[C@@H]1CC[C@]2(C(=O)NCCc3cccc(C(=O)NCc4ccc(C(=O)NCCN(C)C)cc4)c3)CC[C@]3(C)C(CCC4[C@@]5(C)CC[C@H](O)C(C)(C)C5CC[C@]43C)C12 (stereo partly shown) [Example 135] | 533 nM |  | 70 nM | < 100 nM
C=C(C)[C@@H]1CC[C@]2(C(=O)NCCc3cccc(C(=O)NCc4ccc(C(=O)NCCN5CCOCC5)cc4)c3)CC[C@]3(C)C(CCC4[C@@]5(C)CC[C@H](O)C(C)(C)C5CC[C@]43C)C12 (stereo partly shown) [Example 136] | 14.1 nM | < 100 nM | 11.6 nM | < 100 nM
C=C(C)[C@@H]1CC[C@]2(C(=O)NCCc3cccc(C(=O)NCc4ccc(C(=O)N(C)CCc5ccccn5)cc4)c3)CC[C@]3(C)C(CCC4[C@@]5(C)CC[C@H](O)C(C)(C)C5CC[C@]43C)C12 (stereo partly shown) [Example 137] | 10.5 nM | < 100 nM | 10.8 nM | < 100 nM
